Laboratory results: patent publication US6414037B1 (Pharmascience, priority 1998, dated 2002)

Test system: C3H/10T1/2 clone 8 cells
Assay: Two-stage transformation assay in C3H10T1/2 cells
Format: cell-based, mouse
Conditions: DMBA (0.25 μg/ml), TPA (0.1 μg/ml)
Experimental: This 10T1/2 cell line of mouse embryo fibroblasts has been widely used as an experimental system to study neoplastic transformation induced by a variety of agents, such as polycyclic hydrocarbons, methylating agents, and X-rays. Two-stage transformation assays, with 3-methylcholanthrene (MCA) or DMBA as inducer and TPA as promoter, were performed in these tests.
C3H10T1/2 Cl 8 cells were purchased from the American Type Culture Collection (ATCC CCL 226, Rockville, Md.) and maintained in Eagle's basal medium with Earle's salts (EBME) containing 10% (v/v) fetal bovine serum (FBS, Gibco Laboratories, Chagrin Falls, Ohio) without antibiotics, and sodium bicarbonate (2.2 gl). Cells were seeded at 5×10^4 per 75 cm^2 flask and grown in a humidified incubator containing 5% carbon dioxide in air at 37° C. Cells used in all these experiments were passage between 10-13.
Two-stage transformation assays in C3H10T1/2 cells were performed according to a procedure modified from that described in Mondal et al. (1976) Cancer Res. 36:2254-2260. One thousand cells obtained from freshly confluent flasks were seeded per well in 12-well plate containing 2 ml of medium (12 wells per experimental point). After incubation at 37° C. for three days, MCA or DMBA (2 mg/ml stock solution in DMSO) was added to give final concentrations of 0.25 μg/ml. Carcinogen-containing medium was removed from the growing cultures after 24 hours and cells were rinsed once with PBS before addition of fresh EBME supplemented with 10% FBS and gentamycin (25 μg/ml). […] TPA and test compounds were added to the medium each time the medium was changed. Medium was changed on all plates twice weekly. After confluency was reached, the FBS concentration was reduced to 5% and amphotericin B (fungizone, 1.5 μg/ml) was added to the medium (see Reznikoff et al. (1973) Cancer Res. 33:3239-3249 and Bertram (1979) Cancer Lett. 7:289-298). Subsequent medium changes were performed weekly. Cultures were fixed with methanol and stained with Giemsa at the seventh week. Type II and III transformed foci were scored according to the teachings of Landolph “Transformation Assay of Established Cell Lines: Mechanism and Application,” Eds. Kakunaga et al. (Toronto: Oxford University Press, 1985), at pp. 185-199.

[1] = all-trans-retinyl acetate (0.3 μg/ml)

Compound | No. of wells foci/total no. of wells (aspirin 200 μM) | Total No. of foci/no. wells scored (aspirin 200 μM) | Total No. type II (aspirin 200 μM) | Total No. type III (aspirin 200 μM) | Wells with foci (%) (aspirin 200 μM) | No. of wells foci/total no. of wells [1] | Total No. of foci/no. wells scored [1] | Total No. type II [1] | Total No. type III [1] | Wells with foci (%) [1]
CC(=O)Oc1ccccc1C(=O)O [aspirin] | 0/12 | 0/12 | 0 | 0 | 0% |  |  |  |  | 
CC(=O)OC/C=C(C)/C=C/C=C(C)/C=C/C1=C(C)CCCC1(C)C [all-trans-retinyl acetate] |  |  |  |  |  | 0/12 | 0/12 | 0 | 0 | 0%
